Paper PMC9090415, “Discovery of small molecule inhibitors of Plasmodium falciparum apicoplast DNA polymerase” (Journal of Enzyme Inhibition and Medicinal Chemistry, 2022)

Target: P. falciparum apicoplast DNA polymerase (Pf-apPOL) (Plasmodium falciparum, UniProt Q8ILY1)
Assay: Fluorescence-based high-throughput DNA polymerase assay (molecular beacon), primary screen and dose-response
Type: biochemical
Settings: for DNA Pol: 90 min, 10 µM
Experimental: The HT assay employs a molecular beacon, a stem-loop DNA template with a Cy3 dye and the Black Hole Quencher on the 3′ and 5′ ends of the DNA, respectively. Pf-apPOL concentration is based on a calculated absorptivity of ε280 = 56750 M^−1 cm^−1. Reactions were carried out at 25 °C, using Corning 3575 […] (well-volume, 20 µL). Assays testing for compound inhibition composed of reaction buffer (pH 7.9 in 50 mM potassium acetate, 20 mM Tris-acetate and 10 mM magnesium acetate), Pf-apPOL (20 nM), DNA substrate (20 nM), dNTPs (6 µM), and compound (10 µM in DMSO). The DNA and nucleotide substrates (dNTPs) were at concentrations of 20 nM and 6 µM, respectively, in the assay. Pf-apPOL was incubated in the reaction buffer with dNTPs and the compound of interest (10 µM, in the assay) at 25 °C for 10 min. The DNA substrate was then added and the reaction was allowed to proceed for 90 min at 25 °C.
Each assay plate contained 16 negative controls (no Pf-apPOL, DMSO present) and 16 positive controls (Pf-apPOL present, no DMSO). The fluorescence of each well was determined using a BioTek Synergy Neo fluorescence plate reader using excitation and emission wavelengths of 555 and 570 nm, respectively.
In the above, Min is the average of fluorescence emission of the negative controls (substrate only), Max the average fluorescence emission from the positive controls (enzyme + substrate), and Test the emission from the assays in the presence of compounds (enzyme + compound + substrates). […] […] The IC50 of each compound was determined using Equation (2): (2) IC50= Vmax/(1+ (I/IC50)^n)
In the above, n measures cooperativity, with n > 1 indicating synergistic binding of more than a single molecule of the compound.
To identify apPOL inhibitors we utilised our previously developed high-throughput DNA polymerase assay. The HT assay is based on a molecular beacon DNA template that forms a stem-loop with a Cy3 dye and the Black Hole Quencher on the 3′ and 5′ ends of the DNA, respectively. DNA polymerase activity extends an annealed primer through the stem region, displacing the fluorophore from the quencher, thereby increasing its fluorescence (Figure 1(A)). The assay accurately recapitulates the kinetic behaviour of apPOL, as measured through more conventional low-throughput gel-based assays. The Z′ factor for the assay described here was 0.9 across all plates (data not shown).
Figure 1. High-throughput screening. (A) The fluorescent-based DNA polymerase assay used to screen the compound libraries. The DNA template strand is a hairpin loop with a primer annealed to the loop. The 3’ end of the primer is 11 bases away from the 6 bp duplex. Strand displacement activity of the DNA polymerase separates the Cy3 dye from the Black hole quencher leading to an increase in fluorescent signal. (B) The high-throughput assay workflow. The DNA polymerase is incubated with […] compound for 10 min prior to addition of the hairpin substrate. The reaction is quenched at 3 different time points and the fluorescent signal is measured and % inhibition is determined using the provided equation.

Sequence of P. falciparum apicoplast DNA polymerase (Pf-apPOL) (Q8ILY1 entry or part of it): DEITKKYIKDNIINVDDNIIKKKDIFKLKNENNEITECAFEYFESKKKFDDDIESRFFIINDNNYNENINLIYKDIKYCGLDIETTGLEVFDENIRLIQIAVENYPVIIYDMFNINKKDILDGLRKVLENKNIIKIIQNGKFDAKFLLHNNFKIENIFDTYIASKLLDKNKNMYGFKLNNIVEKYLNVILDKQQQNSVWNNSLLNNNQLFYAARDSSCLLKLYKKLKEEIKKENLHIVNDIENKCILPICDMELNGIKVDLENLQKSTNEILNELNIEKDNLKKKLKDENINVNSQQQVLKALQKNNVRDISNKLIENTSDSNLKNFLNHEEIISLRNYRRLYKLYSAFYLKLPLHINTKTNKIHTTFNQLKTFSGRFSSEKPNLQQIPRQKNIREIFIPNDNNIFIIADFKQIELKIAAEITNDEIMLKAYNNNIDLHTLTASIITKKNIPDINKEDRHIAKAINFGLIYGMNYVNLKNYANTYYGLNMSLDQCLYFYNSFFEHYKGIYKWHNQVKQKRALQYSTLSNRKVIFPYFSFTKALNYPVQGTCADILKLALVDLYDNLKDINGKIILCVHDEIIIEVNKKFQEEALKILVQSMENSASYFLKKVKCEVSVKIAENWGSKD

## COc1cc(/C=C2\C(=O)N(c3ccc(C(=O)O)cc3)N=C2C(F)(F)F)ccc1OCC(C)C [KU0069072]
DRC-1, concentration 2.5
  % inhibition Apo pol 10': 27.3475%
  % inhibition Apol 90': 15.3217%
  % inhibition apPOL 180': 6.275%
DRC-1, concentration 5
  % inhibition Apo pol 10': 10.3149%
  % inhibition Apol 90': -0.5045%
  % inhibition apPOL 180': -5.844%
DRC-1, concentration 10
  % inhibition Apo pol 10': 46.067%
  % inhibition Apol 90': 33.8794%
  % inhibition apPOL 180': 21.4839%
DRC-1, concentration 20
  % inhibition Apo pol 10': 70.4954%
  % inhibition Apol 90': 63.3531%
  % inhibition apPOL 180': 50.844%
DRC-1, concentration 40
  % inhibition Apo pol 10': 88.0061%
  % inhibition Apol 90': 82.4517%
  % inhibition apPOL 180': 75.9132%
DRC-1, concentration 80 (unit not given)
  % inhibition Apo pol 10': 95.6412%
DRC-1, concentration 80
  % inhibition Apol 90': 93.9861%
  % inhibition apPOL 180': 92.8608%
DRC-2, concentration 2.5
  % inhibition Apo pol 5': 4%
  % inhibition Apol 40': 4.27%
  % inhibition ApPOL 90': 2.38%
  % inhibition apPOL 180': 0.394%
DRC-2, concentration 5
  % inhibition Apo pol 5': -3.52%
  % inhibition Apol 40': -5%
  % inhibition ApPOL 90': -7%
  % inhibition apPOL 180': -9%
DRC-2, concentration 10
  % inhibition Apo pol 5': 24%
  % inhibition Apol 40': 28%
  % inhibition ApPOL 90': 25%
  % inhibition apPOL 180': 15%
DRC-2, concentration 20
  % inhibition Apo pol 5': 44%
  % inhibition Apol 40': 51%
  % inhibition ApPOL 90': 50%
  % inhibition apPOL 180': 40%
DRC-2, concentration 40
  % inhibition Apo pol 5': 59%
  % inhibition Apol 40': 70%
  % inhibition ApPOL 90': 71%
  % inhibition apPOL 180': 66%
DRC-2, concentration 80
  % inhibition Apo pol 5': 65%
  % inhibition Apol 40': 78%
  % inhibition ApPOL 90': 80%
  % inhibition apPOL 180': 82%
Primary screen value of the 186 hits, unit not given
  DNA Pol: 76
Primary screen value, head prints only 'DNA Pol'
  DNA Pol: 76
